Experimental data as given in PubChem BioAssay (NCI).
Where “and” joins values, the source holds several entries; their conditions need not be identical. Equal entries are not always repeated.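 The compound was tested at five concentrations on cells cultured in 96-well plates, with a 48-hour exposure period. GI50: concentration for 50% inhibition of growth. TGI: total growth inhibition.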

Tests used:
Test in all cases: growth of human tumour cells (NCI), 48 h
[1] = test system: TK-10 renal
[2] = test system: PC-3 prostate
[3] = test system: SK-MEL-28 melanoma
[4] = test system: SNB-19 CNS
[5] = test system: HOP-92 NSCLC
[6] = test system: SN12C renal
[7] = test system: HOP-62 NSCLC
[8] = test system: HCT-15 colon
[9] = test system: SK-MEL-2 melanoma
[10] = test system: ACHN renal

SMILES	GI50 [1]	TGI [1]	GI50 [2]	TGI [2]	GI50 [3]	TGI [3]	GI50 [4]	TGI [4]	GI50 [5]	TGI [5]	GI50 [6]	TGI [6]	GI50 [7]	TGI [7]	GI50 [8]	TGI [8]	GI50 [9]	TGI [9]	GI50 [10]	TGI [10]
c1ccc2c(N=NSc3ncnc4nc[nH]c34)c3ccccc3nc2c1	1.77 µM	6.37 µM	1.63 µM	8.04 µM	1.78 µM	3.71 µM	1.36 µM	13 µM	1.79 µM	4.77 µM	0.811 µM	12.8 µM	1.2 µM	5.71 µM	1.15 µM	10.2 µM	1.64 µM	3.61 µM	0.609 µM	7.03 µM
O=C1C2=C(C(=O)c3ccccc31)C(O)(S(=O)(=O)O)C(O)(S(=O)(=O)O)C1N=CC=CC21 (centres undefined)	6.25 µM and 9.35 µM	68.3 µM and 28.8 µM	4.69 µM and 3.2 µM	> 100 µM and 29.6 µM	17 µM and 12.1 µM	96.1 µM and 28.6 µM	4.28 µM and 5.5 µM	44.4 µM and > 100 µM	2.96 µM and 1.85 µM	26.9 µM and 6.81 µM	4.84 µM and 3.25 µM	> 100 µM and 14.1 µM	5.36 µM and 3.03 µM	31.8 µM and 19.2 µM	3.47 µM and 2.15 µM	> 100 µM	10.1 µM and 9.93 µM	70.3 µM and 33.1 µM	4.47 µM and 3.83 µM	39.2 µM and 19.3 µM
COC(=O)Nc1nc2ccc(C(=O)c3cccc(I)c3)cc2[nH]1	6.37 µM	32.7 µM	0.0457 µM	6.18 µM	1.13 µM	> 81.2 µM	0.0625 µM	> 39.8 µM	0.0985 µM	11.7 µM	0.125 µM	> 33.3 µM	0.304 µM	38.5 µM	0.0459 µM	13.2 µM	1.26 µM	> 72.3 µM	0.13 µM	21.1 µM
Cc1ccsc1C(NC(=O)c1ccccc1)c1cc(Cl)c2cccnc2c1O (centres undefined)	0.579 µM	12.6 µM	0.45 µM	16.6 µM	0.688 µM	18.9 µM	0.394 µM	15.7 µM	0.442 µM	7.45 µM	0.971 µM	14.7 µM	0.471 µM	5.68 µM	0.266 µM	16.6 µM	0.609 µM	8.75 µM	0.45 µM	11.2 µM
COc1cc2ncnc(Oc3ccc(NC(=O)Nc4ccc(CN5CCOCC5)c(C(F)(F)F)c4)c4ccccc34)c2cc1OC	0.445 µM	6.95 µM	1.75 µM	9.36 µM	0.666 µM	3.03 µM	2.35 µM	12.2 µM	0.413 µM	6.74 µM	0.292 µM	1.71 µM	2.5 µM	10.1 µM	1.04 µM	4.7 µM	1.61 µM	8.3 µM	0.303 µM	1.41 µM
COc1cc(OC)c(/C=C/C(=O)c2c(OC)cc(OC)cc2OC)c(OC)c1	3.31 µM	> 100 µM	0.992 µM	> 100 µM	0.855 µM	5.24 µM	2.54 µM	14.9 µM	0.534 µM	6.5 µM	1.81 µM	> 74.4 µM	1.27 µM	> 100 µM	0.458 µM	33.4 µM	0.984 µM	> 21.8 µM	2.3 µM	> 100 µM
CCN1CCN(C(=O)[C@]23CC[C@@H](C)[C@H](C)[C@@H]2C2=CC[C@@H]4[C@@]5(C)CCC(=O)C(C)(C)[C@@H]5CC[C@@]4(C)[C@]2(C)CC3)CC1	1.27 µM	4.14 µM	0.875 µM	3.17 µM	0.889 µM	1.7 µM	0.849 µM	1.72 µM	0.713 µM	2.06 µM	0.776 µM	1.48 µM	1.38 µM	3.09 µM	0.977 µM	2.39 µM	1.29 µM	3.33 µM	1.33 µM	4.38 µM
Cc1nnc(N/N=C/c2ccc([N+](=O)[O-])o2)[nH]c1=O	1.03 µM	> 25 µM	0.512 µM	> 100 µM	0.815 µM	> 100 µM	0.779 µM	> 100 µM	0.228 µM	1.76 µM	0.589 µM	22.5 µM	1.45 µM	> 68.2 µM	1.86 µM	> 100 µM	3.14 µM	> 48.8 µM	0.603 µM	4.58 µM
CC1=CC(C)=N/C(=N/S(=O)(=O)c2cc(C)c(Cl)cc2SCc2ccccc2)NN1	> 100 µM	> 100 µM	> 100 µM	> 100 µM	> 100 µM	> 100 µM	> 100 µM	> 100 µM	17.9 µM	62.8 µM	> 100 µM	> 100 µM	82.5 µM	> 100 µM	> 100 µM	> 100 µM	> 100 µM	> 100 µM	> 100 µM	> 100 µM
Nc1nc(N)c2c(ccc3c2ccn3Cc2cccc([N+](=O)[O-])c2)n1	1.14 µM	2.67 µM	0.163 µM and 0.0201 µM	2.74 µM and 1.74 µM	1.04 µM and 1.02 µM	2.36 µM and 2.2 µM	0.0898 µM	2.42 µM		3.05 µM and 1.05 µM	0.0615 µM	1.65 µM	0.0654 µM	1.87 µM	0.0126 µM	1.58 µM and 1.7 µM	1.26 µM	2.62 µM	0.0372 µM	1.74 µM
Cc1c(C(=O)Nc2ccc(N3C[C@@H](C)O[C@@H](C)C3)nc2)cccc1-c1ccc(OC(F)(F)F)cc1	5.48 µM and 9.98 µM	21.2 µM and 30.3 µM	5.44 µM and 6.68 µM	27 µM and 36.8 µM	12.9 µM and 16.8 µM	33.6 µM and 40.1 µM	7.85 µM and 21.3 µM	32 µM and > 100 µM	2.51 µM and 1.79 µM	13.7 µM and 13 µM	10.8 µM and 14.1 µM	29.8 µM and 44.6 µM	12.2 µM and 16.5 µM	46.2 µM and 36.8 µM	12.2 µM and 16.9 µM	38.8 µM and 55.8 µM	13.1 µM and 21.6 µM	44.9 µM and > 100 µM	5.6 µM and 14.4 µM	23.3 µM and 44.1 µM
CCC[CH2][Sn]1([CH2]CCC)[O]C(=O)c2cccc([N+](=O)[O-])c2C(=O)[O]1	0.335 µM	0.805 µM	1.06 µM	2.45 µM	0.465 µM	1.43 µM	1.2 µM	2.51 µM	0.228 µM	1.66 µM	0.784 µM	2.15 µM	1.92 µM	3.36 µM	0.3 µM	1.31 µM	0.286 µM	0.825 µM	0.348 µM	1.27 µM
